# In patent US20050065062A1, “Method of formulating a pharmaceutical composition” (3M Innovative Properties Company, priority 2003, published 2005):
# Assay: Franz diffusion cell, membrane diffusion across hairless mouse skin
# Format: in vitro ADME
# Description: Diffusion of the compounds through hairless mouse skin into phosphate buffer in a Franz cell was carried out and measured as described in Example 1, with Sudan I being used in place of Fat Brown RR.
structure (smiles),measurement,setting,value
"C[C@]12CC[C@H]3[C@@H](CCC4=CC(=O)CC[C@@]43C)[C@@H]1CC[C@@H]2O [Testosterone, testosterone]",CUMULATIVE AMOUNT OF COMPOUND DIFFUSED ACROSS SKIN,"Table 3, saturated solution in alpha-terpineol, 0 hours",0 μg/10 mL
same,CUMULATIVE AMOUNT OF COMPOUND DIFFUSED ACROSS SKIN,"Table 3, saturated solution in alpha-terpineol, 6 hours",605 μg/10 mL
same,CUMULATIVE AMOUNT OF COMPOUND DIFFUSED ACROSS SKIN,"Table 3, saturated solution in alpha-terpineol, 12 hours",1585 μg/10 mL
same,CUMULATIVE AMOUNT OF COMPOUND DIFFUSED ACROSS SKIN,"Table 3, saturated solution in alpha-terpineol, 18 hours",3043 μg/10 mL
same,CUMULATIVE AMOUNT OF COMPOUND DIFFUSED ACROSS SKIN,"Table 3, saturated solution in alpha-terpineol, 24 hours",4414 μg/10 mL
same,CUMULATIVE AMOUNT OF COMPOUND DIFFUSED ACROSS SKIN,"Table 3, saturated solution in isostearic acid, 0 hours",0 μg/10 mL
same,CUMULATIVE AMOUNT OF COMPOUND DIFFUSED ACROSS SKIN,"Table 3, saturated solution in isostearic acid, 6 hours",74 μg/10 mL
same,CUMULATIVE AMOUNT OF COMPOUND DIFFUSED ACROSS SKIN,"Table 3, saturated solution in isostearic acid, 12 hours",192 μg/10 mL
same,CUMULATIVE AMOUNT OF COMPOUND DIFFUSED ACROSS SKIN,"Table 3, saturated solution in isostearic acid, 18 hours",418 μg/10 mL
same,CUMULATIVE AMOUNT OF COMPOUND DIFFUSED ACROSS SKIN,"Table 3, saturated solution in isostearic acid, 24 hours",740 μg/10 mL
same,CUMULATIVE AMOUNT OF COMPOUND DIFFUSED ACROSS SKIN,"Table 3, saturated solution in propylene glycol, 0 hours",0 μg/10 mL
same,CUMULATIVE AMOUNT OF COMPOUND DIFFUSED ACROSS SKIN,"Table 3, saturated solution in propylene glycol, 6 hours",79 μg/10 mL
same,CUMULATIVE AMOUNT OF COMPOUND DIFFUSED ACROSS SKIN,"Table 3, saturated solution in propylene glycol, 12 hours",216 μg/10 mL
same,CUMULATIVE AMOUNT OF COMPOUND DIFFUSED ACROSS SKIN,"Table 3, saturated solution in propylene glycol, 18 hours",546 μg/10 mL
same,CUMULATIVE AMOUNT OF COMPOUND DIFFUSED ACROSS SKIN,"Table 3, saturated solution in propylene glycol, 24 hours",956 μg/10 mL
same,CUMULATIVE AMOUNT OF COMPOUND DIFFUSED ACROSS SKIN,"Table 3, saturated solution in tetraglycol, 0 hours",0 μg/10 mL
same,CUMULATIVE AMOUNT OF COMPOUND DIFFUSED ACROSS SKIN,"Table 3, saturated solution in tetraglycol, 6 hours",23 μg/10 mL
same,CUMULATIVE AMOUNT OF COMPOUND DIFFUSED ACROSS SKIN,"Table 3, saturated solution in tetraglycol, 12 hours",46 μg/10 mL
same,CUMULATIVE AMOUNT OF COMPOUND DIFFUSED ACROSS SKIN,"Table 3, saturated solution in tetraglycol, 18 hours",81 μg/10 mL
same,CUMULATIVE AMOUNT OF COMPOUND DIFFUSED ACROSS SKIN,"Table 3, saturated solution in tetraglycol, 24 hours",119 μg/10 mL
same,relative order for membrane diffusion rate,ranking of excipients,alpha-terpineol>propylene glycol>isostearic acid>tetraglycol
same,CUMULATIVE AMOUNT OF COMPOUND DIFFUSED ACROSS SKIN,"saturated solution in alpha-terpineol, 0 hours",0 µg/mL
same,CUMULATIVE AMOUNT OF COMPOUND DIFFUSED ACROSS SKIN,"saturated solution in alpha-terpineol, 6 hours",605 µg/mL
same,CUMULATIVE AMOUNT OF COMPOUND DIFFUSED ACROSS SKIN,"saturated solution in alpha-terpineol, 12 hours",1585 µg/mL
same,CUMULATIVE AMOUNT OF COMPOUND DIFFUSED ACROSS SKIN,"saturated solution in alpha-terpineol, 18 hours",3043 µg/mL
same,CUMULATIVE AMOUNT OF COMPOUND DIFFUSED ACROSS SKIN,"saturated solution in alpha-terpineol, 24 hours",4414 µg/mL
same,CUMULATIVE AMOUNT OF COMPOUND DIFFUSED ACROSS SKIN,"saturated solution in isostearic acid, 0 hours",0 µg/mL
same,CUMULATIVE AMOUNT OF COMPOUND DIFFUSED ACROSS SKIN,"saturated solution in isostearic acid, 6 hours",74 µg/mL
same,CUMULATIVE AMOUNT OF COMPOUND DIFFUSED ACROSS SKIN,"saturated solution in isostearic acid, 12 hours",192 µg/mL
same,CUMULATIVE AMOUNT OF COMPOUND DIFFUSED ACROSS SKIN,"saturated solution in isostearic acid, 18 hours",418 µg/mL
same,CUMULATIVE AMOUNT OF COMPOUND DIFFUSED ACROSS SKIN,"saturated solution in isostearic acid, 24 hours",740 µg/mL
same,CUMULATIVE AMOUNT OF COMPOUND DIFFUSED ACROSS SKIN,"saturated solution in propylene glycol, 0 hours",0 µg/mL
same,CUMULATIVE AMOUNT OF COMPOUND DIFFUSED ACROSS SKIN,"saturated solution in propylene glycol, 6 hours",79 µg/mL
same,CUMULATIVE AMOUNT OF COMPOUND DIFFUSED ACROSS SKIN,"saturated solution in propylene glycol, 12 hours",216 µg/mL
same,CUMULATIVE AMOUNT OF COMPOUND DIFFUSED ACROSS SKIN,"saturated solution in propylene glycol, 18 hours",546 µg/mL
same,CUMULATIVE AMOUNT OF COMPOUND DIFFUSED ACROSS SKIN,"saturated solution in propylene glycol, 24 hours",956 µg/mL
same,CUMULATIVE AMOUNT OF COMPOUND DIFFUSED ACROSS SKIN,"saturated solution in tetraglycol, 0 hours",0 µg/mL
same,CUMULATIVE AMOUNT OF COMPOUND DIFFUSED ACROSS SKIN,"saturated solution in tetraglycol, 6 hours",23 µg/mL
same,CUMULATIVE AMOUNT OF COMPOUND DIFFUSED ACROSS SKIN,"saturated solution in tetraglycol, 12 hours",46 µg/mL
same,CUMULATIVE AMOUNT OF COMPOUND DIFFUSED ACROSS SKIN,"saturated solution in tetraglycol, 18 hours",81 µg/mL
same,CUMULATIVE AMOUNT OF COMPOUND DIFFUSED ACROSS SKIN,"saturated solution in tetraglycol, 24 hours",119 µg/mL
